{"source": "paper PMC3944389", "about": "“Differential Neuroprotective Effects of 5′-Deoxy-5′-Methylthioadenosine” (PLoS ONE, 2014)", "key": {"[1]": {"assay": "Parallel artificial membrane permeability assay (PAMPA), BBB model, passive diffusion", "format": "in vitro ADME", "protocol": "The PAMPA assay was used to determine the capacity of compounds to cross a blood brain barrier (BBB) model by passive diffusion, measuring the effective permeability of the compounds at an initial concentration of 200 µM. The buffer solution was prepared from a concentrated commercial solution (Pion, Billerica, MA, US) according to the manufacturer's instructions and the pH was adjusted to 7.4 with 0.5 M NaOH. The compound of interest was dissolved in the buffer solution (200 µM), the PAMPA sandwich was separated and the donor well was filled with 195 µL of the compound of interest. The acceptor plate and donor plate were brought together, with the underside of the membrane in contact with the buffer. An 4 µL aliquot of the phospholipid mixture (20 mg/ml) in dodecane was added to the filter of each well, and then 200 µL of buffer solution was added to each acceptor well. The plate was covered and incubated for 4 h at RT in a saturated humidity atmosphere with agitation and with 25 µm of an unstirred water layer in the Gut-Box (Pion). After 4 h, a 150 µL/well sample from the donor plate and a 150 µL/well sample from the acceptor plate were transferred to HPLC vials. Then, 100 µL from acceptor well, 5 µL from the donor well and 5 µL from the t0 samples were injected into an HPLC reverse-phase symmetry C18 column (150 mm×4.6 mm×5 µm, 100 Å; Waters). Transport was confirmed by HPLC mass spectrometry and matrix-assisted laser desorption/ionization time-of-flight (MALDI-TOF) spectrometry to ensure the compound had maintained its integrity. The phospholipid mixture used was a porcine polar brain lipid extract composed of 12.6% phosphatidylcholine (PC), 33.1% phosphatidylethanolamine (PE), 18.5% phosphatidylserine (PS), 4.1% phosphatidylinositol (PI), 0.8% phosphatidic acid and 30.9% of other compounds."}, "[2]": {"system": "rat mixed cultures of neurons and astrocytes", "assay": "Oxygen-glucose deprivation (OGD) with iodoacetate, LDH release", "format": "cell-based", "details": "IAA 20 and 50 µM; MTA 10 µM or 100 µM, APV 100 µM", "protocol": "(§1) Finally, to prepare neuron-astrocyte co-cultures, neurons were resuspended in B27 Neurobasal medium plus 10% of foetal bovine serum (FBS) and then seeded onto a monolayer of astrocytes in 24-well plates at a density of 1–2×10^5 cells per well, the astrocytes having been prepared beforehand, as described elsewhere. One day later, the medium was replaced with B27-Neurobasal plus 10% FBS medium, and the cells were maintained at 37°C in 5% CO2. The cultures were used 8–9 days after plating. Neurons and astrocytes were identified with antibodies against microtubule-associated protein-2 and GFAP, respectively.\nIschemic damage was induced by incubating cell cultures for 1 h in a hyperbaric chamber in a nitrogen-saturated buffer containing: 130 mM NaCl, 5.4 mM KCl, 0.1323 mM CaCl2, 0.26 mM NaHCO3, 0.8 mM MgCl2, 1.18 mM NaH2PO4, 10 mM sucrose (OGD plus sucrose) and iodoacetate (IAA, 20 or 50 µM). IAA is a glycolytic blocker typically used in OGD experiments to simulate ischemic conditions. After the insult, the cells were incubated under normoxic conditions for an additional 24 h in the presence of glucose but in the absence of IAA. Distinct reagents were added during ischemia to evaluate their neuroprotective activity by assessing cell viability and cell death in the cultures.\nThe cell status was assessed by measuring the release of lactate dehydrogenase (LDH) from dead cells. LDH was measured spectrophotometrically at 490 nm on a 96-well plate reader using the Cytotox 96 Kit according to the manufacturer's instructions (Promega). The LDH release was defined by the ratio of LDH released to the total LDH present in the cell at the beginning of the treatment."}, "[3]": {"system": "co-culture of bovine-brain endothelial cells (BBECs) and newborn rat astrocytes", "assay": "In vitro cell model of transport across the BBB", "format": "in vitro ADME", "protocol": "A in vitro cell model of BBB permeability was established using a co-culture of bovine-brain endothelial cells (BBECs) and newborn rat astrocytes. The cells were first cultured in 24-well (Transwell^R) permeable supports with a surface area of 0.33 cm^2 and a pore size of 0.4 µm (Corning), the upper surface of which was coated with collagen type IV and fibronectin. The inserts were then placed upside down in a large petri dish, and 40 µL of a suspension (containing approximately 45,000 astrocytes) was placed on the bottom of each filter. The petri dish was incubated at 37°C for 1 h, and 40 µL of fresh DMEM+S was added to the bottom of each filter every 15 min. The inserts were then transferred back to the plate and incubated at 37°C in 5% CO2 for 3 d. Then, 2 h before seeding the BBECs, the medium was replaced by DMEM+S supplemented with 125 µg/mL heparin and 2 h later, the cells were seeded onto the inserts (45,000 cells per filter). The plate was incubated at 37°C in 5% CO2 for 3 more days, after which the medium was replaced by DMEM+S supplemented with cyclic adenosine monophosphate (cAMP) and RO-20-1724, and kept at 37°C in 5% CO2. On day 8 of the co-culture, the transendothelial electrical resistance (TEER) was measured to determine whether the system was ready for transport studies. To validate the maturity of the model, permeability assays with lucifer yellow (LY) were performed in parallel as a marker of the integrity of the in vitro barrier. During the permeability assay, the samples were co-incubated with LY (20 µM) to assess the integrity of the cellular monolayer during the assay."}, "[4]": {"system": "C57Bl mice treated with MPTP", "assay": "MPTP mouse model of Parkinson's disease, stereological counting of TH+ neurons", "format": "in vivo", "details": "MTA 30 mg/kg, MSX-3 10 mg/kg (legend: 9 mg/kg), alone or combined; MPTP 30 mg/kg i.p. 5 days", "protocol": "12-week-old male C57Bl mice from Charles River (Barcelona, Spain) were injected i.p. with 30 mg/kg 1-methyl-4-phenyl-1,2,3,6-tetrahydropyridine (MPTP, Sigma-Aldrich) on five consecutive days. Subsequently, MTA (30 mg/kg) and/or the A2A adenosine receptor (A2AR, 10 mg/kg) antagonist, MSX-3 (Sigma-Aldrich), was administered one day before starting MPTP treatment and 1 h after each MPTP injection (n = 6 in each experimental group). We used mice in the MPTP model because rats are resistant to systemic MPTP administration and thus, the rat MPTP model requires stereotaxic MPTP injection directly into the nigrostriatal fibers. […]\nThe reference volume was calculated according to Cavalieri principles from images obtained with a 2× objective using a point count array. The cross-sectional area of the nucleus was measured and the reference volume (Vr) for the entire nucleus was estimated using the following equation: [drawing 1] where T is the thickness of the sections, a/p is the area of each point and Pi is the number of points that landed within the area. The region of interest to estimate the area was outlined at low magnification (4×), and the number of labeled neurons was calculated under 100× magnification (with oil immersion) using randomized meander sampling and the optical dissector methods. […]"}, "[5]": {"system": "rat mixed astrocyte-neuron cultures", "assay": "NMDA-induced caspase 3 activation in mixed astrocyte-neuron cultures", "format": "cell-based", "details": "pre- or co-treatment; MTA 250 µM, MK-801 10 µM; 300 µM NMDA", "protocol": "as §1\nTo assay N-methyl–D-aspartate (NMDA) excitotoxicity, primary cultures were seeded in 24-well plates at 15×10^4 cells/well, cultured for 7 days in vitro, and treated for different times with the vehicle alone (dimethyl sulfoxide (DMSO) 1%), NMDA (300 µM), NMDA (300 µM) + MTA (250 µM) or NMDA (300 µM) + MK-801, a NMDA receptor antagonist (10 µM). […] Caspase 3 activity was measured in these lysates one hour after the NMDA addition.\nCortical neurons, or mixed cortical neurons and glia, were seeded in poly-L-lysine-coated 6-well culture plates during 7 days in vitro before start the set of experiments. […] The extracts were then centrifuged at 5,000×g for 10 min at 4°C and the protein content was determined by the BCA protein assay. […]"}}}
{"compound": "NC(=O)N1c2ccccc2C=Cc2ccccc21", "note": "[Carbamazepine]", "values": [{"measurement": "% Membrane retention", "setting": "[1]; 200 µM, pH 7.4, 4 h at RT", "value": 0.5, "unit": "%"}, {"measurement": "Papp at 4 h, 200 µM", "setting": "[1]; 200 µM, pH 7.4, 4 h at RT, read-out: Pe x 10^−6", "value": 11.5, "unit": "×10⁻⁶ cm/s"}]}
{"compound": "CC(C)NCC(O)COc1cccc2ccccc12", "note": "(stereo not drawn) [Propanolol, propranolol]", "values": [{"measurement": "Membrane retention", "setting": "[1]", "value": 30, "unit": "%"}, {"measurement": "% Membrane retention", "setting": "[1]; 200 µM, pH 7.4, 4 h at RT", "value": 30.2, "unit": "%"}, {"measurement": "Pe x 10^−6 (cm/s)", "setting": "[1]; 200 µM, pH 7.4, 4 h at RT", "value": "10.3 x 10^−6 cm/s"}]}
{"compound": "N[C@H](CCCP(=O)(O)O)C(=O)O", "note": "[APV, (2R)-amino-5-phosphonovaleric acid, reference compound]", "values": [{"measurement": "protection against OGD (cell death, LDH release)", "setting": "[2]", "value": "similar"}]}
{"compound": "Transferrin: control compound in the in vitro cell model of BBB", "values": [{"measurement": "Pe x 10^−6 (cm/s)", "setting": "[3]", "value": "8.2 x 10^−6 cm/s"}, {"measurement": "effective permeability coefficient (Pe)", "setting": "[3]", "value": 8.2, "unit": "×10⁻⁶ cm/s"}]}
{"compound": "C#CCn1c(=O)c2c(nc(/C=C/c3cccc(OC)c3)n2C)n(CCCOP(=O)([O-])[O-])c1=O.[Na+].[Na+]", "note": "[MSX-3, reference compound]", "values": [{"measurement": "neuroprotection: TH+ neurons in the substantia nigra", "setting": "[4]", "value": "not statistically significant"}]}
{"compound": "C[C@]12N[C@H](Cc3ccccc31)c1ccccc12", "note": "[MK-801, reference compound]", "values": [{"measurement": "caspase 3 activation induced by NMDA", "setting": "[5]", "value": "reverted to basal levels"}]}
{"compound": "Apo E: control compound in the in vitro cell model of BBB", "values": [{"measurement": "Pe x 10^−6 (cm/s)", "setting": "[3]", "value": "2.2 x 10^−6 cm/s"}, {"measurement": "effective permeability coefficient (Pe)", "setting": "[3]", "value": 2.2, "unit": "×10⁻⁶ cm/s"}]}
